{"source": "paper PMC5218480", "about": "(PLoS ONE, 2017)", "system": "MV-4-11 cells", "experiment": "Gene expression microarray analysis (Affymetrix PrimeView) and GSEA", "assay_type": "cell-based, human", "design": "RFU PODN (11730768_x_at) / Fold change /veh PODN (11730768_x_at) / RFU LINC00158 (11744669_a_at) / Fold change /veh LINC00158 (11744669_a_at) / RFU DUSP10 (11751237_a_at) / Fold change /veh DUSP10 (11751237_a_at) / RFU ID3 (11757404_x_at) / Fold change /veh ID3 (11757404_x_at) / RFU PLEKHG5 (11737974_s_at) / Fold change /veh PLEKHG5 (11737974_s_at) / RFU LRRC4B (11730491_at) / Fold change /veh LRRC4B (11730491_at) / RFU GIMAP4 (11747438_a_at) / Fold change /veh GIMAP4 (11747438_a_at) / RFU KRT8 (11758183_x_at) / Fold change /veh KRT8 (11758183_x_at) / RFU CNN1 (11734310_a_at) / Fold change /veh CNN1 (11734310_a_at) / RFU VPS37D (11726825_at) / Fold change /veh VPS37D (11726825_at) / RFU C10orf10 (11716522_x_at) / Fold change /veh C10orf10 (11716522_x_at) / RFU KIR2DL2 /// KIR2DL4 /// KIR2DL5A /// KIR2DL5B /// KIR2DS1 /// KIR2DS2 /// KIR2DS3 /// KIR2DS4 /// KIR3DL3 /// KIR3DL3 /// KIR3DS1 (11738374_at) / Fold change /veh KIR2DL2 /// KIR2DL4 /// KIR2DL5A /// KIR2DL5B /// KIR2DS1 /// KIR2DS2 /// KIR2DS3 /// KIR2DS4 /// KIR3DL3 /// KIR3DL3 /// KIR3DS1 (11738374_at) / RFU C1QL1 (11718748_at) / Fold change /veh C1QL1 (11718748_at) / RFU TMPRSS4 (11747572_a_at) / Fold change /veh TMPRSS4 (11747572_a_at) / RFU HAMP (11756126_x_at) / Fold change /veh HAMP (11756126_x_at) / RFU RNFT2 (11725882_a_at) / Fold change /veh RNFT2 (11725882_a_at) / RFU NR4A2 (11747474_a_at) / Fold change /veh NR4A2 (11747474_a_at) / RFU ABCC12 (11746883_a_at) / Fold change /veh ABCC12 (11746883_a_at) / RFU TMEM136 (11760407_x_at) / Fold change /veh TMEM136 (11760407_x_at) / RFU CLDN22 /// WWC2 (11732394_at) / Fold change /veh CLDN22 /// WWC2 (11732394_at) / RFU HLA-DPB1 (11760878_x_at) / Fold change /veh HLA-DPB1 (11760878_x_at) / RFU SPINT1 (11716480_a_at) / Fold change /veh SPINT1 (11716480_a_at) / RFU GAP43 (11754022_s_at) / Fold change /veh GAP43 (11754022_s_at) / RFU A4GNT (11735810_at) / Fold change /veh A4GNT (11735810_at) / RFU PRB3 (11715151_x_at) / Fold change /veh PRB3 (11715151_x_at) / RFU TUBB4B (11761932_at) / Fold change /veh TUBB4B (11761932_at) / RFU CAPN14 (11732068_a_at) / Fold change /veh CAPN14 (11732068_a_at) / RFU TMCC2 (11721928_a_at) / Fold change /veh TMCC2 (11721928_a_at) / RFU IRGQ (11745062_a_at) / Fold change /veh IRGQ (11745062_a_at) / RFU FAM174B (11720279_a_at) / Fold change /veh FAM174B (11720279_a_at) / RFU TMPRSS4 (11748680_a_at) / Fold change /veh TMPRSS4 (11748680_a_at) / RFU FAM212B (11763350_a_at) / Fold change /veh FAM212B (11763350_a_at) / RFU PLEKHG5 (11743358_a_at) / Fold change /veh PLEKHG5 (11743358_a_at) / RFU ZSCAN30 (11745921_a_at) / Fold change /veh ZSCAN30 (11745921_a_at) / RFU CMKLR1 (11741424_a_at) / Fold change /veh CMKLR1 (11741424_a_at) / RFU LOC101060620 /// MAPK8IP1 (11723275_at) / Fold change /veh LOC101060620 /// MAPK8IP1 (11723275_at) / RFU SPTSSB (11747773_x_at) / Fold change /veh SPTSSB (11747773_x_at) / RFU PRSS12 (11739890_at) / Fold change /veh PRSS12 (11739890_at) / RFU BIN1 (11741810_x_at) / Fold change /veh BIN1 (11741810_x_at) / RFU WNT11 (11732464_a_at) / Fold change /veh WNT11 (11732464_a_at) / RFU C10orf10 (11716521_a_at) / Fold change /veh C10orf10 (11716521_a_at) / RFU C5orf56 (11738089_at) / Fold change /veh C5orf56 (11738089_at) / RFU CYB561 (11721691_x_at) / Fold change /veh CYB561 (11721691_x_at) / RFU ANKRD19P (11752326_a_at) / Fold change /veh ANKRD19P (11752326_a_at) / RFU OR2T12 /// OR2T33 /// OR2T8 (11738714_s_at) / Fold change /veh OR2T12 /// OR2T33 /// OR2T8 (11738714_s_at) / RFU VCAN (11748164_a_at) / Fold change /veh VCAN (11748164_a_at) / RFU JSRP1 (11732532_at) / Fold change /veh JSRP1 (11732532_at) / RFU KRTAP10-11 (11738290_x_at) / Fold change /veh KRTAP10-11 (11738290_x_at) / RFU MYO3A (11730013_a_at) / Fold change /veh MYO3A (11730013_a_at) / RFU EBF3 (11725865_a_at) / Fold change /veh EBF3 (11725865_a_at) / RFU CAMK2N1 (11719241_x_at) / Fold change /veh CAMK2N1 (11719241_x_at) / RFU C5orf56 (11738088_a_at) / Fold change /veh C5orf56 (11738088_a_at) / RFU OLFML3 (11715873_a_at) / Fold change /veh OLFML3 (11715873_a_at) / RFU LOC100653217 /// NTM (11731650_a_at) / Fold change /veh LOC100653217 /// NTM (11731650_a_at) / RFU MAPK11 (11762145_a_at) / Fold change /veh MAPK11 (11762145_a_at) / RFU FIZ1 (11724087_x_at) / Fold change /veh FIZ1 (11724087_x_at) / RFU OASL (11726364_x_at) / Fold change /veh OASL (11726364_x_at) / RFU SOX15 (11748057_x_at) / Fold change /veh SOX15 (11748057_x_at) / RFU CD79A (11719716_a_at) / Fold change /veh CD79A (11719716_a_at) / RFU HIST1H1D (11736915_at) / Fold change /veh HIST1H1D (11736915_at) / RFU CASKIN2 (11723855_a_at) / Fold change /veh CASKIN2 (11723855_a_at) / RFU LOC730098 (11760151_x_at) / Fold change /veh LOC730098 (11760151_x_at) / RFU OR4N2 (11742367_at) / Fold change /veh OR4N2 (11742367_at) / RFU PRRT2 (11749266_a_at) / Fold change /veh PRRT2 (11749266_a_at) / RFU SNX32 (11753110_a_at) / Fold change /veh SNX32 (11753110_a_at) / RFU CDHR5 (11726645_a_at) / Fold change /veh CDHR5 (11726645_a_at) / RFU RCAN1 (11760418_a_at) / Fold change /veh RCAN1 (11760418_a_at) / RFU FAM167A (11723789_a_at) / Fold change /veh FAM167A (11723789_a_at) / RFU FAM26E (11764081_at) / Fold change /veh FAM26E (11764081_at) / RFU ISYNA1 (11749810_s_at) / Fold change /veh ISYNA1 (11749810_s_at) / RFU ACY1 (11761880_at) / Fold change /veh ACY1 (11761880_at) / RFU 11764098_at / Fold change /veh 11764098_at / RFU SAMD14 (11745864_x_at) / Fold change /veh SAMD14 (11745864_x_at) / RFU NPB (11741838_a_at) / Fold change /veh NPB (11741838_a_at) / RFU TMPRSS6 (11731388_a_at) / Fold change /veh TMPRSS6 (11731388_a_at) / RFU KRTAP10-2 (11738614_at) / Fold change /veh KRTAP10-2 (11738614_at) / RFU ARHGAP8 /// PRR5-ARHGAP8 (11727945_x_at) / Fold change /veh ARHGAP8 /// PRR5-ARHGAP8 (11727945_x_at) / RFU KRTAP5-7 /// NADSYN1 (11734609_at) / Fold change /veh KRTAP5-7 /// NADSYN1 (11734609_at) / RFU RASL12 (11751679_a_at) / Fold change /veh RASL12 (11751679_a_at) / RFU CDKN2B (11736163_a_at) / Fold change /veh CDKN2B (11736163_a_at) / RFU PRF1 (11729649_at) / Fold change /veh PRF1 (11729649_at) / RFU, ZNF638 /// ZNF638-IT1 / Fold change vs veh, ZNF638 /// ZNF638-IT1 / RFU, PANK3 / Fold change vs veh, PANK3 / RFU, SH3YL1 / Fold change vs veh, SH3YL1 / RFU, ZEB2 / Fold change vs veh, ZEB2 / RFU, NRIP1 / Fold change vs veh, NRIP1 / RFU, PTTG1IP / Fold change vs veh, PTTG1IP / RFU, CAPN2 / Fold change vs veh, CAPN2 / RFU, MED14 / Fold change vs veh, MED14 / RFU, SNORA58 / Fold change vs veh, SNORA58 / RFU, C1orf63 / Fold change vs veh, C1orf63 / RFU, LRRFIP1 / Fold change vs veh, LRRFIP1 / RFU, NDUFAF7 / Fold change vs veh, NDUFAF7 / RFU, SLC12A2 / Fold change vs veh, SLC12A2 / RFU, IBTK / Fold change vs veh, IBTK / RFU, ESF1 / Fold change vs veh, ESF1 / Fold change vs veh, TMEM50B / RFU, TAOK1 / Fold change vs veh, TAOK1 / RFU, ACBD3 / Fold change vs veh, ACBD3 / RFU, TMA16 / Fold change vs veh, TMA16 / RFU, RWDD3 / Fold change vs veh, RWDD3 / RFU, BCAT1 / Fold change vs veh, BCAT1 / RFU, EDEM3 / Fold change vs veh, EDEM3 / RFU, TMEM33 / Fold change vs veh, TMEM33 / RFU, WDR75 / Fold change vs veh, WDR75 / RFU, AHCTF1 / Fold change vs veh, AHCTF1 / RFU, TFRC / Fold change vs veh, TFRC / RFU, ZDHHC17 / Fold change vs veh, ZDHHC17 / RFU, NOM1 / Fold change vs veh, NOM1 / RFU, ARL8B / Fold change vs veh, ARL8B / RFU, ZBTB11 / Fold change vs veh, ZBTB11 / RFU, TAMM41 / Fold change vs veh, TAMM41 / RFU, KIAA1704 /// LOC100996395 / Fold change vs veh, KIAA1704 /// LOC100996395 / RFU, ING1 / Fold change vs veh, ING1 / RFU, TRMT61B / Fold change vs veh, TRMT61B / RFU, FUBP3 / Fold change vs veh, FUBP3 / RFU, TP53 / Fold change vs veh, TP53 / RFU, TNKS2 / Fold change vs veh, TNKS2 / RFU, ZFP14 / Fold change vs veh, ZFP14 / RFU, ACTR2 / Fold change vs veh, ACTR2 / RFU, PPP3R1 / Fold change vs veh, PPP3R1 / RFU, PIK3R1 / Fold change vs veh, PIK3R1 / RFU, HNRNPA1 / Fold change vs veh, HNRNPA1 / RFU, RNF170 / Fold change vs veh, RNF170 / RFU, ZNF28 / Fold change vs veh, ZNF28 / RFU, RNGTT / Fold change vs veh, RNGTT / RFU, OGT / Fold change vs veh, OGT / RFU, BRD1 / Fold change vs veh, BRD1 / RFU, MARS / Fold change vs veh, MARS / RFU, ZNF655 / Fold change vs veh, ZNF655 / RFU, FAHD1 / Fold change vs veh, FAHD1 / RFU, BDP1 / Fold change vs veh, BDP1 / RFU, LRRCC1 / Fold change vs veh, LRRCC1 / RFU, ARID1A / Fold change vs veh, ARID1A / RFU, ZNF146 / Fold change vs veh, ZNF146 / RFU, ZNF330 / Fold change vs veh, ZNF330 / RFU, GPN3 / Fold change vs veh, GPN3 / RFU, C9orf123 / Fold change vs veh, C9orf123 / RFU, N4BP2L2 / Fold change vs veh, N4BP2L2 / RFU, ARFIP1 / Fold change vs veh, ARFIP1 / RFU, FAM179B / Fold change vs veh, FAM179B / RFU, BCL10 / Fold change vs veh, BCL10 / RFU, UHRF1BP1L / Fold change vs veh, UHRF1BP1L / RFU, BET1 / Fold change vs veh, BET1 / RFU, CNOT2 / Fold change vs veh, CNOT2 / RFU, ZNF268 / Fold change vs veh, ZNF268 / Fold change vs veh, ZNF507 / RFU, DGCR2 / Fold change vs veh, DGCR2 / RFU, WDSUB1 / Fold change vs veh, WDSUB1 / Fold change vs veh, HSP90B1 /// MIR3652 / RFU, ADSS / Fold change vs veh, ADSS / RFU, GK / Fold change vs veh, GK / RFU, ZNF148 / Fold change vs veh, ZNF148 / RFU, TAF9 / Fold change vs veh, TAF9 / RFU, SLC1A5 / Fold change vs veh, SLC1A5 / RFU, SLMO2 / Fold change vs veh, SLMO2 / RFU, ABCC4 / Fold change vs veh, ABCC4 / RFU, LOC101060439 /// RAP1B / Fold change vs veh, LOC101060439 /// RAP1B / RFU, RFX7 / Fold change vs veh, RFX7 / RFU, GTPBP10 / Fold change vs veh, GTPBP10 / RFU, CNEP1R1 / Fold change vs veh, CNEP1R1 / RFU, BIVM-ERCC5 /// ERCC5 / Fold change vs veh, BIVM-ERCC5 /// ERCC5 / RFU, ILF3 / Fold change vs veh, ILF3 / RFU 11762660_at / Fold change /veh 11762660_at / RFU VCAN (11757783_s_at) / Fold change /veh VCAN (11757783_s_at) / RFU DDX43 (11728927_at) / Fold change /veh DDX43 (11728927_at) / RFU KRT8 (11758188_x_at) / Fold change /veh KRT8 (11758188_x_at) / RFU NKD1 (11759106_at) / Fold change /veh NKD1 (11759106_at) / RFU SRD5A1 (11742802_a_at) / Fold change /veh SRD5A1 (11742802_a_at) / RFU TPSAB1 /// TPSB2 (11721975_s_at) / Fold change /veh TPSAB1 /// TPSB2 (11721975_s_at) / RFU GSTM3 (11746129_a_at) / Fold change /veh GSTM3 (11746129_a_at) / RFU IL23R (11737362_x_at) / Fold change /veh IL23R (11737362_x_at) / RFU TMEM51 (11727254_a_at) / Fold change /veh TMEM51 (11727254_a_at) / RFU PIWIL2 (11732686_x_at) / Fold change /veh PIWIL2 (11732686_x_at) / RFU ORM1 (11744905_x_at) / Fold change /veh ORM1 (11744905_x_at) / RFU CCDC152 (11743942_at) / Fold change /veh CCDC152 (11743942_at) / RFU ECM1 (11717891_a_at) / Fold change /veh ECM1 (11717891_a_at) / RFU IL23R (11748794_a_at) / Fold change /veh IL23R (11748794_a_at) / RFU TNFAIP8L3 (11732012_x_at) / Fold change /veh TNFAIP8L3 (11732012_x_at) / RFU MBOAT4 (11741988_at) / Fold change /veh MBOAT4 (11741988_at) / RFU 11764193_at / Fold change /veh 11764193_at / RFU TMEM53 (11763286_at) / Fold change /veh TMEM53 (11763286_at) / RFU MAGEB2 (11727129_at) / Fold change /veh MAGEB2 (11727129_at) / RFU TMEM200A (11744735_a_at) / Fold change /veh TMEM200A (11744735_a_at) / RFU CCDC152 (11751479_a_at) / Fold change /veh CCDC152 (11751479_a_at) / RFU FAM211A (11726209_a_at) / Fold change /veh FAM211A (11726209_a_at) / RFU RGS16 (11746705_a_at) / Fold change /veh RGS16 (11746705_a_at) / RFU VCAN (11755009_s_at) / Fold change /veh VCAN (11755009_s_at) / RFU RHOB (11743442_s_at) / Fold change /veh RHOB (11743442_s_at) / RFU RGS16 (11720943_a_at) / Fold change /veh RGS16 (11720943_a_at) / RFU RGS16 (11720944_at) / Fold change /veh RGS16 (11720944_at) / RFU, VPS4B / Fold change vs veh, VPS4B / RFU, CREB1 / Fold change vs veh, CREB1 / RFU, DNAJC13 / Fold change vs veh, DNAJC13 / RFU, GNAQ / Fold change vs veh, GNAQ / RFU, CDK5R1 / Fold change vs veh, CDK5R1 / RFU, ZRANB3 / Fold change vs veh, ZRANB3 / RFU, CUL4A / Fold change vs veh, CUL4A / RFU, CCNY / Fold change vs veh, CCNY / RFU, UFL1 / Fold change vs veh, UFL1 / RFU, COG3 / Fold change vs veh, COG3 / RFU, DIAPH2 / Fold change vs veh, DIAPH2 / RFU, SKA2 / Fold change vs veh, SKA2 / RFU, AFF3 / Fold change vs veh, AFF3 / RFU, LMF1 / Fold change vs veh, LMF1 / RFU, IPO11 / Fold change vs veh, IPO11 / RFU, DFFB / Fold change vs veh, DFFB / RFU, FOXP1 / Fold change vs veh, FOXP1 / RFU, CARD8 / Fold change vs veh, CARD8 / RFU, STRN3 / Fold change vs veh, STRN3 / RFU, ADK / Fold change vs veh, ADK / RFU, RASSF2 / Fold change vs veh, RASSF2 / RFU, WIPF1 / Fold change vs veh, WIPF1 / RFU, LARP1B / Fold change vs veh, LARP1B / RFU, RASA1 / Fold change vs veh, RASA1 / RFU, RB1 / Fold change vs veh, RB1 / RFU, PPFIA1 / Fold change vs veh, PPFIA1 / RFU, MAT2A / Fold change vs veh, MAT2A / RFU, CCT5 / Fold change vs veh, CCT5 / RFU, WDR92 / Fold change vs veh, WDR92 / RFU, CUX1 / Fold change vs veh, CUX1 / RFU, TTC7A / Fold change vs veh, TTC7A / RFU, TMEM135 / Fold change vs veh, TMEM135 / RFU, DEPTOR / Fold change vs veh, DEPTOR / RFU, CPM / Fold change vs veh, CPM / RFU, DNAJB6 / Fold change vs veh, DNAJB6 / RFU, CACNA2D3 / Fold change vs veh, CACNA2D3 / RFU, DTX4 / Fold change vs veh, DTX4 / RFU, TFCP2 / Fold change vs veh, TFCP2 / RFU, GMCL1 /// GMCL1P1 / Fold change vs veh, GMCL1 /// GMCL1P1 / RFU, AEBP2 / Fold change vs veh, AEBP2 / RFU, SNHG1 /// SNORD22 /// SNORD25 /// SNORD26 /// SNORD27 /// SNORD28 /// SNORD29 /// SNORD31 / Fold change vs veh, SNHG1 /// SNORD22 /// SNORD25 /// SNORD26 /// SNORD27 /// SNORD28 /// SNORD29 /// SNORD31 / Fold change (Aza/veh), C12orf56 (ProbeSet 11735607_a_at) / Fold change (ACY-1035/veh), C12orf56 (ProbeSet 11735607_a_at) / Fold change (Aza/veh), FGFR1OP (ProbeSet 11751329_s_at) / Fold change (ACY-1035/veh), FGFR1OP (ProbeSet 11751329_s_at) / Fold change (Aza/veh), VPS36 (ProbeSet 11739960_a_at) / Fold change (ACY-1035/veh), VPS36 (ProbeSet 11739960_a_at) / RFU SYPL1 (11715823_x_at) / Fold change /veh SYPL1 (11715823_x_at) / RFU IGFBP7 (11715501_s_at) / Fold change /veh IGFBP7 (11715501_s_at) / RFU REEP3 (11722064_at) / Fold change /veh REEP3 (11722064_at) / RFU IGLL1 (11728026_x_at) / Fold change /veh IGLL1 (11728026_x_at): dose or concentration left out as unconfirmed", "settings": "ProbeSet 11727545_at; LIST B", "data": [{"smiles": "Nc1ccc(-c2cccs2)cc1NC(=O)c1ccc2c(c1)cc(C1CC1)n2CCN1CCOCC1", "note": "[ACY-1035]", "values": [{"measurement": "Fold change vs veh, PANK3", "value": 0.83}]}]}
